# Reference: publication PMC4752462 (PLoS ONE, 2016)
# Assays:
# CYP3A4 = conditions: based on the EVG metabolic activity; cited from earlier work
# CYP3A = test system: CYP3A; design: method as in PMID 21348537; conditions: read-out: IC50 for CYP3A inhibition; cited from earlier work
# in vitro = in vitro ADME, human; conditions: human, microsomes
# Method: (§1) The reaction was carried out using human liver microsomes in 0.1 M potassium phosphate buffer at pH 7.4 as described previously. […] After pre-incubation at 37°C for 10 minutes, 3 mM final concentration of NADPH was added to initiate the metabolic reaction. After 7 minutes incubation at 37°C the reactions were terminated by adding 1:3 volumes of cold acetonitrile. For the time kinetic study, the reaction was terminated at various time points (0.0, 2.5, 5, 10, 15, 20, 30, and 60 minutes). […] The Prior to LCMS/MS analysis the analyte was extracted from the microsomes by a protein precipitation method as described previously. The concentrations of all the drugs were quantified using Ab Sciex Analyst® software. Microsomal kinetic data were analyzed using Michaelis-Menten and exponential decay equations. CYP3A4 inhibition data were evaluated by fitting the values to dose-response inhibition and calculated IC50 values were reported. All graphs were plotted and two-tailed t-tests were performed wherever appropriate using GraphPad Prism 5.01 (GraphPad, San Diego, CA). Significant differences between more than two groups analyzed with one-way ANOVA followed by Dunnett's multiple comparison tests using IBM […] version 20. […] To study the influence of alcohol consumption on EVG metabolism, 20 mM ethanol (physiological concentration in moderate drinker) was used to treat human liver microsomes. […] EVG degradation/metabolism at 4 μM followed a pseudo-first-order kinetic. Therefore, we fit the data to an exponential one phase decay equation to determine the apparent half-life (t1/2) and rate constant K.
# human liver microsomes = experiment: in vitro; format: in vitro ADME; conditions: for EVG remaining: human, microsomes, 4 μM, pH 7.4
# Method: as §1
# [1] = Substrate (saturation) kinetics of EVG metabolism in human liver microsomes; format: in vitro ADME; conditions: human
# Method: The reaction was carried out using human liver microsomes in 0.1 M potassium phosphate buffer at pH 7.4 as described previously. […] After pre-incubation at 37°C for 10 minutes, 3 mM final concentration of NADPH was added to initiate the metabolic reaction. After 7 minutes incubation at 37°C the reactions were terminated by adding 1:3 volumes of cold acetonitrile. For the time kinetic study, the reaction was terminated at various time points (0.0, 2.5, 5, 10, 15, 20, 30, and 60 minutes). […] The Prior to LCMS/MS analysis the analyte was extracted from the microsomes by a protein precipitation method as described previously. The concentrations of all the drugs were quantified using Ab Sciex Analyst® software. Microsomal kinetic data were analyzed using Michaelis-Menten and exponential decay equations. CYP3A4 inhibition data were evaluated by fitting the values to dose-response inhibition and calculated IC50 values were reported. All graphs were plotted and two-tailed t-tests were performed wherever appropriate using GraphPad Prism 5.01 (GraphPad, San Diego, CA). Significant differences between more than two groups analyzed with one-way ANOVA followed by Dunnett's multiple comparison tests using IBM […] version 20.
smiles,measurement,setting,value
"COc1cc2c(cc1Cc1cccc(Cl)c1F)c(=O)c(C(=O)O)cn2[C@H](CO)C(C)C [EVG, Elvitegravir]",Km,CYP3A4,21.5 µM
same,IC50,CYP3A,63 µM
same,half-life at 4 μM,"in vitro; pH 7.4, Half-life",12.1 min
same,half-life at 4 μM,"in vitro; pH 7.4, Half-life (minutes)",17 ± 1 min
same,Rate Constant 'K',"human liver microsomes; With Ethanol, three values per group",0.05
same,EVG remaining,human liver microsomes; 0 h,100 % of control
same,EVG remaining,human liver microsomes; 2.5 min,96.6 % of control
same,EVG remaining,human liver microsomes; 5 min,93.5 % of control
same,EVG remaining,human liver microsomes; 10 min,77.8 % of control
same,EVG remaining,human liver microsomes; 0.25 h,63.6 % of control
same,EVG remaining,human liver microsomes; 20 min,45.2 % of control
same,EVG remaining,human liver microsomes; 0.5 h,30.4 % of control
same,EVG remaining,human liver microsomes; 1 h,14.2 % of control
same,Km at 7 min,"[1]; pH 7.4, EVG 4-200 μM, COBI at same ratio, EtOH 20 mM",68 ± 17 µM
same,Km at 7 min,"[1]; pH 7.4, in the presence of ethanol",115 ± 18 µM
same,Km at 7 min,"[1]; pH 7.4, three values per group used for statistics",68.3 µM
same,Km at 7 min,"[1]; pH 7.4, when COBI is present",189 ± 46 µM
